Laboratory results as given in the supplement of paper PMC4977894.
± gives the standard deviation of the averaged measurements.

Assays:
[1] = tested on: Homo sapiens (human subject panel, olfactory perception); assay: perceived odor familiarity rating (rating 0-100); higher = more familiar
Method: (§1)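 Human olfactory psychophysics. 55 healthy subjects (after excluding 6 low performers) sniffed 1 mL of each odorant diluted in paraffin oil (vials, two dilutions per molecule, 20 molecules presented twice). Each subject rated intensity, pleasantness and familiarity on a 0-100 slider, starting at 50 and required to move. Ratings were given only when the subject reported detecting a smell; per-subject ratings are averaged over subjects.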

[2] = tested on: Homo sapiens (human subject panel, olfactory perception); assay: perceived odor pleasantness rating (rating 0-100); higher = more pleasant
Method: as §1

[3] = tested on: Homo sapiens (human subject panel, olfactory perception); assay: perceived odor intensity rating (rating 0-100); higher = stronger perceived smell
Method: as §1

[4] = odor dilution in paraffin oil: 1/1,000
[5] = odor dilution in paraffin oil: 1/100,000
[6] = odor dilution in paraffin oil: 1/10
[7] = odor dilution in paraffin oil: 1/10,000,000

Structure (SMILES) | perceived odor familiarity rating [1, 4] | perceived odor familiarity rating [1, 5] | perceived odor pleasantness rating [2, 4] | perceived odor pleasantness rating [2, 5] | perceived odor intensity rating [3, 4] | perceived odor intensity rating [3, 5] | perceived odor familiarity rating [1, 6] | perceived odor pleasantness rating [2, 6] | perceived odor intensity rating [3, 6] | perceived odor familiarity rating [1, 7] | perceived odor pleasantness rating [2, 7] | perceived odor intensity rating [3, 7]
C=CCCCCCC [1-Octene] | 42.9 ± 28 | 45.6 ± 31 | 39.1 ± 24 | 48 ± 26 | 39.7 ± 29 | 33.6 ± 30 |  |  |  |  |  | 
C=CC(O)CC (configuration not stated) [1-Penten-3-ol] | 43 ± 35 | 34.7 ± 24 | 40.7 ± 29 | 43.3 ± 22 | 53 ± 32 | 31.3 ± 32 |  |  |  |  |  | 
CCC(O)c1ccccc1 (configuration not stated) [1-Phenyl-1-propanol] | 39.2 ± 31 | 25.5 ± 26 | 54 ± 20 | 48.9 ± 19 | 36.6 ± 32 | 15.2 ± 22 |  |  |  |  |  | 
CCCCCCCCCCCO [1-undecanol] | 37.1 ± 30 |  | 41.9 ± 28 |  | 42.8 ± 32 |  | 51 ± 32 | 41 ± 28 | 74.9 ± 24 |  |  | 
c1coc(CSCc2ccco2)c1 [2,2'-(Thiodimethylene)difuran] | 44.9 ± 32 | 52 ± 32 | 20.1 ± 23 | 26.9 ± 24 | 77.1 ± 24 | 73.5 ± 22 |  |  |  |  |  | 
Cc1nc(C)c(C)nc1C [2,3,5,6-Tetramethylpyrazine] | 35.7 ± 28 |  | 49.4 ± 22 |  | 25.8 ± 25 |  | 41.3 ± 31 | 28.7 ± 23 | 79.1 ± 18 |  |  | 
CCc1nccnc1CC [2,3-Diethylpyrazine] |  | 55 ± 28 |  | 34.3 ± 24 |  | 70.7 ± 26 |  |  |  | 44.9 ± 28 | 40.3 ± 18 | 30.4 ± 29
CC(=O)C(C)=O [2,3-butanedione] | 49.3 ± 34 | 50 ± 29 | 24.5 ± 19 | 35.9 ± 22 | 81.7 ± 19 | 55.8 ± 28 |  |  |  |  |  | 
Cc1nc(C)c(C)s1 [2,4,5-Trimethylthiazole] |  | 48.4 ± 31 |  | 33.8 ± 26 |  | 67.9 ± 26 |  |  |  | 46.4 ± 31 | 44.2 ± 27 | 35.2 ± 31
OC1CSC(O)CS1 (configuration not stated) [2,5-Dihydroxy-1,4-dithiane] | 51.5 ± 32 |  | 13.8 ± 22 |  | 88.4 ± 16 |  | 50.9 ± 35 | 16.9 ± 25 | 86.4 ± 16 |  |  | 
COC1=C(C)OC(C)C1=O (configuration not stated) [2,5-Dimethyl-4-methoxy-3(2H)-furanone] | 45.4 ± 33 | 44.1 ± 28 | 26 ± 19 | 28.2 ± 23 | 74.8 ± 24 | 56.3 ± 31 |  |  |  |  |  | 
Cc1ccc(C)[nH]1 [2,5-Dimethylpyrrole] | 62 ± 28 | 48 ± 31 | 53 ± 27 | 48.2 ± 26 | 71.4 ± 23 | 50.6 ± 30 |  |  |  |  |  | 
Cc1cnc(C)cn1 [2,5-dimethyl pyrazine] |  | 43.8 ± 30 |  | 38.5 ± 21 |  | 50.3 ± 30 |  |  |  | 37.1 ± 28 | 48.4 ± 24 | 29.3 ± 31
Cc1cccc(C)n1 [2,6-Dimethylpyridine] | 47.3 ± 32 | 42.5 ± 31 | 29.8 ± 24 | 35.3 ± 23 | 78.1 ± 20 | 54.1 ± 32 |  |  |  |  |  | 
CCC(C)c1nccs1 (configuration not stated) [2-(1-Methylpropyl)thiazole] | 41.3 ± 32 | 43.9 ± 31 | 25.7 ± 25 | 31.8 ± 23 | 83.9 ± 17 | 55.6 ± 31 |  |  |  |  |  | 
CSCCO [2-(Methylthio)ethanol] | 53.8 ± 34 | 37.4 ± 31 | 34.1 ± 31 | 40 ± 18 | 77.7 ± 23 | 32.3 ± 29 |  |  |  |  |  | 
CC(=O)c1ncc(C)nc1C [2-Acetyl-3,5(6)-dimethylpyrazine] | 58.6 ± 36 | 58.1 ± 31 | 31.5 ± 32 | 49.4 ± 29 | 85.4 ± 17 | 65.1 ± 26 |  |  |  |  |  | 
